From paper PMC4492822 (EMBO Molecular Medicine, 2015)

Legend:
HAPI cells [1] = assay type: cell-based, rat; conditions: 0.5 μg/ml, 1 h
HAPI cells [2] = assay type: cell-based, rat
Procedure: Figure 5 Toxicity studies of RK-33 in mice • Following injection of 20 mg/kg of RK-33, twice a week for 7 weeks, extensive histopathological examination was carried out following necropsy. Identical patterns were observed both in the control and in the treated mice (n = 2). Samples were stained with H&E. Scale bar is 50 μm. • Pharmacokinetics of RK-33 in SCID mice at various time intervals. Results are mean ± SD from 5 mice. LC-MS/MS method was used to determine concentration of RK-33 in mouse plasma and tissue. • Liquid chromatography–mass spectrometry (LC-MS/MS) analysis was performed to determine different metabolites of RK-33. • RK-33 and metabolites characterized by LC-MS/MS in human liver microsomes using the scan mode function of the LC-MS/MS. • HAPI cells were treated with RK-33 (10 μM), HA14-1 (25 μM), or DMSO vehicle, followed by oligomycin (oligo, 0.5 μg/ml), FCCP (3 μM), and antimycin A (AA, 1 μM) while oxygen consumption rate (OCR) was measured. Pyruvate (10 mM) was added in combination with FCCP to ensure that substrate supply was not rate-limiting for maximal OCR. Data are mean ± SD from 2 to 3 wells and representative of independent experiments performed with two different HAPI passages. OCR is baseline-normalized to the point prior to drug or vehicle addition. • HAPI microglial cells were incubated for 1 h in glucose-free XF24 assay medium that was supplemented with 2-deoxyglucose (50 mM) and pyruvate (10 mM). RK-33 (10 μM), oligomycin (0.5 μg/ml), or vehicle control was additionally present as indicated. Results are mean ± SD from 12 replicates pooled from experiments using two consecutive passages. Significance was assessed by two-sided, unpaired t-test. […]
Oxygen consumption measurements were performed using an XF24 Extracellular Flux Analyzer (Seahorse Bioscience, Billerica, MA) as previously described (Wu et al, [2007]; Clerc & Polster, [2012]). […] The ATP bioluminescent somatic cell assay kit (Sigma-Aldrich) was employed for the determination of ATP levels by luminescence using a FLUOstar OPTIMA multimodal plate reader (BMG LABTECH, Inc., Cary, NC). […]

`CC[C@H]1/C=C/C=C/C[C@@H](C)[C@H](O)[C@@](C)(O)C(=O)[C@@H](C)[C@H](O)[C@@H](C)C(=O)[C@@H](C)[C@H](O)[C@@H](C)/C=C/C(=O)O[C@@H]2[C@H](C)[C@H](CC1)O[C@]1(CC[C@H](C)[C@H](C[C@@H](C)O)O1)[C@H]2C` [oligomycin] was tested. Which “decrease of total cellular ATP” value (HAPI cells [1]) did it give?
The value was “approximately 70%”.

`CCCCCC[C@H]1C(=O)O[C@H](C)[C@H](NC(=O)c2cccc(NC=O)c2O)C(=O)O[C@@H](C)[C@@H]1OC(=O)CC(C)C` [antimycin A] was tested. Which “oxygen consumption in the presence of all drugs” value (HAPI cells [2]; 1 μM) did it give?
Its value is “potently inhibited”.

For `CCOC(=O)C1=C(N)Oc2ccc(Br)cc2C1C(C#N)C(=O)OCC` (stereo not shown) [HA14-1], which “OCR measured in the presence of FCCP” value (HAPI cells [2]; 25 μM, positive control) is on record?
Its value is “decreased OCR measured in the presence of FCCP”.

What about the oligomycin-insensitive oxygen consumption (HAPI cells [2]; 25 μM, positive control) of the same molecule?
The oligomycin-insensitive oxygen consumption was “elevated oligomycin-insensitive oxygen consumption”.
